These are literature values, as cited in patent US20070042451A1, “Glycine decarboxylase complex as a herbicidal target” (BASF Aktiengesellschaft, priority 2003, published 2007).

The data set deals with glycine decarboxylase complex. As to conditions: Navarre and Wolpert 1995.

For the substance victorine, the “in vitro inhibition of the GDC activity” value was “inhibition of the GDC activity”.
